For 28 molecules, IC50 results are on record in patent publication EP4667458A1 (Kanaph Therapeutics Inc., priority 2023, dated 2024).

Structures are written as SMILES.

The target of this assay is T1, SOS1 (Homo sapiens, UniProt Q07889).
T1 construct: adding equal amounts of HIS-SOS1cat (160 nM; Cytoskeleton, US); His; purchased Cytoskeleton, US
T1 sequence (Q07889 564-1049 limits assumed): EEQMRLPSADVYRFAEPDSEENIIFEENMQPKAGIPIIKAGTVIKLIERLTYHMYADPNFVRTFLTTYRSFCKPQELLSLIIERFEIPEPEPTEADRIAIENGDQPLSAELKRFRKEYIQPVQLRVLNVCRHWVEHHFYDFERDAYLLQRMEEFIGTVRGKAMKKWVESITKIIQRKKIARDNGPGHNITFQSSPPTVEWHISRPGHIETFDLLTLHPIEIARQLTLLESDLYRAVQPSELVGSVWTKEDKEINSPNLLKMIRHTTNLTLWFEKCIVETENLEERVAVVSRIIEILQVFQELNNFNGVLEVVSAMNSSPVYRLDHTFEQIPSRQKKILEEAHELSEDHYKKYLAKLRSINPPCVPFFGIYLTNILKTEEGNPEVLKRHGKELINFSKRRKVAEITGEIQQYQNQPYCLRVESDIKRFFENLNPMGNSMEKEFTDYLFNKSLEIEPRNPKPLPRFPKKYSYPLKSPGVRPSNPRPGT
Kind of assay: SOS-catalyzed nucleotide exchange assay (HTRF, SOS1-mediated GTP loading of KRAS G12D). In kind it is biochemical. To be noted: GST-KRAS G12D, HIS-SOS1cat, EDA-GTP-DY-647P1; compound 128 pM to 10 µM; read-out: SOS-catalyzed nucleotide exchange assay (IC50 range, Grade). The method, boiled down:
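SOS1cat (HIS-tagged) preincubated 10 min at room temperature with compound (128 pM-10 µM), then GST-KRAS G12D with anti-GST terbium added; GTP loading tracked as HTRF with a DY-647P1 GTP analogue after 30 min, buffer HEPES pH 7.4. GEF-free wells for normalization; IC50 derived.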
(In general: In TR-FRET formats the signal depends on donor and acceptor labels being close together.)
Usually IC50 stands for the midpoint of a concentration-inhibition curve. For `C[C@@H](NC(=O)c1ccc(=O)n(-c2ccccc2)n1)c1cccc(C(F)(F)CO)c1` [Example 57, N-[(1R)-1-[3-(1,1-difluoro-2-hydroxy-ethyl)phenyl]ethyl]-6-oxo-1-phenyl-pyridazine-3-carboxamide], the concentration for half-maximal inhibition (IC50) was below 1000 nM.

With `C[C@@H](NC(=O)c1ccc(=O)n(-c2cccc(S(C)(=O)=O)c2)n1)c1cccc(C(F)(F)CO)c1` [Example 58, N-[(1R)-1-[3-(1,1-difluoro-2-hydroxy-ethyl)phenyl]ethyl]-1-(3-methylsulfonylphenyl)-6-oxo-pyridazine-3-carboxamide], the half-inhibitory concentration (IC50) is below 1000 nM.

Take `C[C@@H](NC(=O)c1ccc(=O)n(-c2ccccc2)n1)c1cccc(C(F)(F)CO)c1F` [Example 59, N-[(1R)-1-[3-(1,1-difluoro-2-hydroxy-ethyl)-2-fluoro-phenyl]ethyl]-6-oxo-1-phenyl-pyridazine-3-carboxamide]: the half-maximal inhibitory concentration (IC50) was below 1000 nM.

Regarding `CCOc1cccc([C@@H](C)NC(=O)c2ccc(=O)n(-c3ccccc3)n2)c1` [Example 60, (R)-N-(1-(3-ethoxyphenyl)ethyl)-6-oxo-1-phenyl-1,6-dihydropyridazine-3-carboxamide], the half-inhibitory concentration (IC50) was above 10000 nM.

Regarding `C[C@@H](NC(=O)c1ccc(=O)n(-c2ccccc2)n1)c1cccc([Si](C)(C)C)c1` [Example 61, 6-oxo-1-phenyl-N-[(1R)-1-(3-trimethylsilylphenyl)ethyl]pyridazine-3-carboxamide], the half-maximal inhibitory concentration (IC50) was 1000 to 10000 nM.

For `C[C@@H](NC(=O)c1ccc(=O)n(-c2ccccc2)c1)c1cc(N)cc(C(F)(F)F)c1` [Example 62, N-[(1R)-1-[3-amino-5-(trifluoromethyl)phenyl]ethyl]-6-oxo-1-phenylpyridine-3-carboxamide], the IC50 is below 1000 nM.

Turning to `C[C@@H](NC(=O)c1cn(-c2ccccc2)c(=O)cn1)c1cc(N)cc(C(F)(F)F)c1` [Example 63, N-[(1R)-1-[3-amino-5-(trifluoromethyl)phenyl]ethyl]-5-oxo-4-phenyl-pyrazine-2-carboxamide], the half-inhibitory concentration (IC50) lay in the range of 1000 to 10000 nM.

For the molecule `C[C@@H](NC(=O)c1ccc(=O)n(C2CC2)n1)c1cc(N)cc(C(F)(F)F)c1` [Example 64, N-[(1R)-1-[3-amino-5-(trifluoromethyl)phenyl]ethyl]-1-cyclopropyl-6-oxo-1,6-dihydropyridazine-3-carboxamide], the half-maximal inhibitory concentration (IC50) was in the range of 1000 to 10000 nM.

With `C[C@@H](NC(=O)c1ccc(=O)n(C2=CCCCC2)n1)c1cc(N)cc(C(F)(F)F)c1` [Example 65, N-[(1R)-1-[3-amino-5-(trifluoromethyl)phenyl]ethyl]-1-(cyclohex-1-en-1-yl)-6-oxo-1,6-dihydropyridazine-3-carboxamide], the 50% inhibitory concentration (IC50) is below 1000 nM.

Consider `CC1CC=C(n2nc(C(=O)N[C@H](C)c3cc(N)cc(C(F)(F)F)c3)ccc2=O)CC1` (stereo partly drawn) [Example 66, N-[(1R)-1-[3-amino-5-(trifluoromethyl)phenyl]ethyl]-1-(4-methylcyclohex-1-en-1-yl)-6-oxo-1,6-dihydropyridazine-3-carboxamide], for which the half-maximal inhibitory concentration (IC50) is 1000 to 10000 nM.

With `C[C@@H](NC(=O)c1ccc(=O)n(C2=CCN(S(C)(=O)=O)CC2)n1)c1cc(N)cc(C(F)(F)F)c1` [Example 67, N-[(1R)-1-[3-amino-5-(trifluoromethyl)phenyl]ethyl]-1-(1-methanesulfonyl-1,2,3,6-tetrahydropyridin-4-yl)-6-oxo-1,6-dihydropyridazine-3-carboxamide], the IC50 was below 1000 nM.

For the molecule `CC(=O)N1CC=C(n2nc(C(=O)N[C@H](C)c3cc(N)cc(C(F)(F)F)c3)ccc2=O)CC1` [Example 68, 1-(1-acetyl-1,2,3,6-tetrahydropyridin-4-yl)-N-[(1R)-1-[3-amino-5-(trifluoromethyl)phenyl]ethyl]-6-oxo-1,6-dihydropyridazine-3-carboxamide], the IC50 was below 1000 nM.

For the molecule `C[C@@H](NC(=O)c1ccc(=O)n(C2=CCCN(S(C)(=O)=O)C2)n1)c1cc(N)cc(C(F)(F)F)c1` [Example 69, N-[(1R)-1-[3-amino-5-(trifluoromethyl)phenyl]ethyl]-1-(1-methanesulfonyl-1,2,5,6-tetrahydropyridin-3-yl)-6-oxo-1,6-dihydropyridazine-3-carboxamide], the IC50 fell in the range of 1000 to 10000 nM.

Take `C[C@@H](NC(=O)c1ccc(=O)n(C23CC(C2)C3)n1)c1cc(N)cc(C(F)(F)F)c1` [Example 70, N-[(1R)-1-[3-amino-5-(trifluoromethyl)phenyl]ethyl]-1-{bicyclo[1.1.1]pentan-1-yl}-6-oxo-1,6-dihydropyridazine-3-carboxamide]: the IC50 lay within 1000 to 10000 nM.

`C[C@@H](NC(=O)c1ccc(=O)n(-c2cccc(CO)c2)c1)c1cc(N)cc(C(F)(F)F)c1` [Example 71, N-[(1R)-1-[3-amino-5-(trifluoromethyl)phenyl]ethyl]-1-[3-(hydroxymethyl)phenyl]-6-oxo-1,6-dihydropyridine-3-carboxamide]: the IC50 was below 1000 nM.

Turning to `C[C@@H](NC(=O)c1ccc(=O)n(-c2cccc(C(=O)OC(C)(C)C)c2)c1)c1cc(N)cc(C(F)(F)F)c1` [Example 72, Tert-butyl 3-(5-{[(1R)-1-[3-amino-5-(trifluoromethyl)phenyl]ethyl]carbamoyl}-2-oxo-1,2-dihydropyridin-1-yl)benzoate], the IC50 was below 1000 nM.

Regarding `C[C@@H](NC(=O)c1ccc(=O)n(-c2ccncc2)c1)c1cc(N)cc(C(F)(F)F)c1` [Example 73, N-[(1R)-1-[3-amino-5-(trifluoromethyl)phenyl]ethyl]-2-oxo-2H-[1,4'-bipyridine]-5-carboxamide], the IC50 was below 1000 nM.

`C[C@@H](NC(=O)c1ccc(=O)n(C2=CCN(S(C)(=O)=O)CC2)c1)c1cc(N)cc(C(F)(F)F)c1` [Example 74, N-[(1R)-1-[3-amino-5-(trifluoromethyl)phenyl]ethyl]-1'-methanesulfonyl-6-oxo-2',3'-dihydro-1'H,6H,6'H-[1,4'-bipyridine]-3-carboxamide]: the IC50 is below 1000 nM.

On to `C[C@@H](NC(=O)c1ccc(=O)n(-c2cccc(C(=O)N3CCOCC3)c2)c1)c1cc(N)cc(C(F)(F)F)c1` [Example 75, N-[(1R)-1-[3-amino-5-(trifluoromethyl)phenyl]ethyl]-1-[3-(morpholine-4-carbonyl)phenyl]-6-oxo-1,6-dihydropyridine-3-carboxamide], for which the concentration for half-maximal inhibition (IC50) is below 1000 nM.

Regarding `C[C@@H](NC(=O)c1ccc(=O)n(-c2cccc(N3CCNC3=O)c2)c1)c1cc(N)cc(C(F)(F)F)c1` [Example 85, N-[(1R)-1-[3-amino-5-(trifluoromethyl)phenyl]ethyl]-6-oxo-1-[3-(2-oxoimidazolidin-1-yl)phenyl]-1,6-dihydropyridine-3-carboxamide], the concentration for half-maximal inhibition (IC50) is below 1000 nM.

Regarding `C[C@@H](NC(=O)c1ccc(=O)n(-c2cccc(N3CCN(C)C3=O)c2)c1)c1cc(N)cc(C(F)(F)F)c1` [Example 89, N-[(1R)-1-[3-amino-5-(trifluoromethyl)phenyl]ethyl]-1-[3-(3-methyl-2-oxo-imidazolidin-1-yl)phenyl]-6-oxo-pyridine-3-carboxamide], the concentration for half-maximal inhibition (IC50) is below 1000 nM.

As for `C[C@@H](NC(=O)c1ccc(=O)n(-c2cccc(F)c2F)c1)c1cc(N)cc(C(F)(F)F)c1` [Example 94, N-[(1R)-1-[3-amino-5-(trifluoromethyl)phenyl]ethyl]-1-(2,3-difluorophenyl)-6-oxo-1,6-dihydropyridine-3-carboxamide], the IC50 was below 1000 nM.

With `C[C@@H](NC(=O)c1ccc(=O)n(-c2ccc(F)cc2F)c1)c1cc(N)cc(C(F)(F)F)c1` [Example 95, N-[(1R)-1-[3-amino-5-(trifluoromethyl)phenyl]ethyl]-1-(2,4-difluorophenyl)-6-oxo-1,6-dihydropyridine-3-carboxamide], the 50% inhibitory concentration (IC50) was below 1000 nM.

For `C[C@@H](NC(=O)c1ccc(=O)n(-c2cc(F)ccc2F)c1)c1cc(N)cc(C(F)(F)F)c1` [Example 96, N-[(1R)-1-[3-amino-5-(trifluoromethyl)phenyl]ethyl]-1-(2,5-difluorophenyl)-6-oxo-1,6-dihydropyridine-3-carboxamide], the half-inhibitory concentration (IC50) is below 1000 nM.

Take `C[C@@H](NC(=O)c1ccc(=O)n(-c2c(F)cccc2F)c1)c1cc(N)cc(C(F)(F)F)c1` [Example 97, N-[(1R)-1-[3-amino-5-(trifluoromethyl)phenyl]ethyl]-1-(2,6-difluorophenyl)-6-oxo-1,6-dihydropyridine-3-carboxamide]: the half-inhibitory concentration (IC50) was in the range of 1000 to 10000 nM.

In the case of `CC(=O)Nc1cc(-n2cc(C(=O)N[C@H](C)c3cc(N)cc(C(F)(F)F)c3)ccc2=O)ccc1F` [Example 113, 1-(3-acetamido-4-fluoro-phenyl)-N-[(1R)-1-[3-amino-5-(trifluoromethyl)phenyl]ethyl]-6-oxo-pyridine-3-carboxamide], the IC50 was below 1000 nM.

As for `C[C@@H](NC(=O)c1ccc(=O)n(C2CCCC2)n1)c1cc(N)cc(C(F)(F)F)c1` [Example 115, N-[(1R)-1-[3-amino-5-(trifluoromethyl)phenyl]ethyl]-1-cyclopentyl-6-oxo-1,6-dihydropyridazine-3-carboxamide], the IC50 lay within 1000 to 10000 nM.

As for `C[C@@H](NC(=O)c1ccc(=O)n(C2CCCCC2)n1)c1cc(N)cc(C(F)(F)F)c1` [Example 116, N-[(1R)-1-[3-amino-5-(trifluoromethyl)phenyl]ethyl]-1-cyclohexyl-6-oxo-1,6-dihydropyridazine-3-carboxamide], the half-maximal inhibitory concentration (IC50) was in the range of 1000 to 10000 nM.
